Laboratory results: PubChem BioAssay (NCI)
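Cells were grown in 96-well plates and exposed to each compound for 48 hours at five concentrations; endpoints were interpolated linearly between bracketing concentrations, or set to the highest concentration if not reached. GI50 marks 50% less growth. TGI denotes the concentration required for complete inhibition of growth.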

How the values were obtained:
Experiment in all cases: NCI tumour cell line growth inhibition, 48 h
[1] = system: DMS 114 small cell lung
[2] = system: KM20L2 colon
[3] = system: RXF-631 renal
[4] = system: SNB-78 CNS
[5] = system: PC-3 prostate
[6] = system: T-47D breast
[7] = system: BT-549 breast
[8] = system: NCI/ADR-RES ovarian
[9] = system: MDA-N

SMILES	TGI [1] [µM]	TGI [2] [µM]	TGI [3] [µM]	TGI [4] [µM]	GI50 [5] [µM]	TGI [5] [µM]	GI50 [6] [µM]	TGI [6] [µM]	GI50 [7] [µM]	TGI [7] [µM]	GI50 [8] [µM]	TGI [8] [µM]	GI50 [9] [µM]
CSc1nc2c(nc(N)n2C2OC(CO)C(O)C(O)C2O)c(=O)[nH]1 (stereo not given)	> 100	> 100	> 100	> 100	–	–	–	–	–	–	–	–	–
C[C@]12CC[C@@H]3c4ccc(O)cc4CC[C@H]3[C@@H]1CC(Cc1ccccc1)(Cc1ccccc1)C2=O	–	–	–	–	4.11	15.5	11	34.6	18.8	38.7	16.5	30.7	–
Cn1c(=O)nc2n(-c3ccc(F)c(F)c3)c3ccccc3nc-2c1=O	18	23.8	62.4	54.6	–	–	–	–	–	–	–	–	–
CON1C(=O)C2(CCCCC2)C(=O)C12C=CC(C)CC2 (stereo not given)	> 100	> 100	> 100	> 100	–	–	–	–	–	–	–	–	–
[Mn+3].[O-][Cl+3]([O-])([O-])O.[O-]c1ccccc1C=NCCN1CC1.[O-]c1ccccc1C=NCCN1CC1	–	–	–	–	19.9	> 100	20.3	> 100	19.4	50.8	19.3	49.8	–
CCOc1ccc(Nc2ccnc3cc(Cl)ccc23)cc1	–	–	–	–	> 100	> 100	> 100	> 100	> 100	> 100	> 100	> 100	–
C#Cc1cccc(Nc2nc(C)nc3cc(NC(=O)CCl)ccc23)c1	–	–	–	–	2.53	6.16	3.17	7.69	1.32	5.31	3.42	12.5	–
Cc1ccc(NC(=O)C(=O)C2C(=O)NC(=O)NC2=O)c(C)c1	> 100	> 100	> 100	> 100	–	–	–	–	–	–	–	–	–
CN1C(c2ccccc2)CC(=NO)CC1c1ccccc1 (stereo not given)	> 100	> 100	> 100	> 100	–	–	46.4	–	–	–	48.8	–	76
CCC(CO)Nc1nc(NCc2ccccc2)c2n[nH]c(C(C)C)c2n1 (stereo not given)	–	–	–	–	7.01	31.5	16	41.2	10.7	23.7	16.7	39.2	–
COC(=O)CCCCCOS(=O)(=O)c1ccc(C)cc1	> 100	> 100	> 100	> 100	–	–	–	–	–	–	–	–	–
CC1(C)CC[C@]2(C(=O)NCCNCCN)CC[C@]3(C)C(=CC[C@@H]4[C@@]5(C)CCC(=O)C(C)(C)[C@@H]5CC[C@]43C)[C@@H]2C1	–	–	–	–	1.82	3.61	1.88	3.95	1.56	3.26	7.81	22.7	–
